Results: patent US20160158200A1, “Combinations of Hepatitis C Virus Inhibitors” (priority 2013, published 2016)

Tested on: HCV genotype-1a variant with glutamine 30 changed to glutamate in the NS5A protein
Format: cell-based
Details: test compound titrated with BMS-790052 fixed at 200 nM; genotype 1a Q30E replicon
From the text: The NS5A synergistic inhibitory effect of test compounds can be determined using various amounts of an NS5A-targeting compound with titration of a second compound of interest. […] In one embodiment, the HCV genotype strain can be genotype 1a containing a change at amino acid 30 of the NS5A protein consisting of glutamine to glutamate. The test compound can be chosen from compounds listed above or from others present in the literature.

Row | SMILES | Fold-Synergistic 1a (Q30E) [fold]
1 | Cc1ccc(S(=O)(=O)NC(c2ncc(-c3ccc(-c4ccc(-c5cnc([C@@H](NS(=O)(=O)c6ccc(C)cc6)C(C)C)[nH]5)cc4)cc3)[nH]2)C(C)C)cc1 (stereo partly drawn) [Compound Y-58] | >100
2 | CC(C)[C@H](NC(=O)C(C)(C)F)c1nc(-c2ccc(-c3ccc(-c4c[nH]c([C@@H](NC(=O)C(C)(C)F)C(C)C)n4)cc3F)cc2)c[nH]1.O=C(O)C(F)(F)F [Compound N-97] | >100
3 | CC(C)COC(=O)N1CCC[C@H]1c1ncc(-c2ccc(-c3ccc(-c4cnc([C@@H]5CCCN5C(=O)OCC(C)C)[nH]4)cc3)cc2)[nH]1 [Compound S-222] | >10
4 | COC(C)(COCc1ccccc1)C(=O)N[C@H](c1nc(-c2ccc(-c3ccc(-c4c[nH]c([C@@H](NC(=O)C(C)(COCc5ccccc5)OC)C(C)(C)C)n4)cc3)cc2)c[nH]1)C(C)(C)C.O=C(O)C(F)(F)F.O=C(O)C(F)(F)F (single isomer, unassigned) [Compound W-231] | >100
5 | COC1CC(C(=O)NC(c2nc(-c3ccc(-c4ccc(-c5c[nH]c(C(NC(=O)C6CC(OC)C6)C(C)(C)C)n5)cc4)cc3)c[nH]2)C(C)(C)C)C1 [Compound L-54] | >100
6 | CC(C)(C)[C@H](NC(=O)CS(C)(=O)=O)c1nc(-c2ccc(-c3ccc(-c4cnc([C@@H](NC(=O)CS(C)(=O)=O)C(C)(C)C)[nH]4)cc3)cc2)c[nH]1 [Compound B-181] | >10
7 | CC(C)(C)[C@H](NC(=O)C(=O)N1CCCCCC1)c1nc(-c2ccc(-c3ccc(-c4c[nH]c([C@@H](NC(=O)C(=O)N5CCCCCC5)C(C)(C)C)n4)cc3)cc2)c[nH]1 [Compound W-32] | >100
8 | CC(C)[C@H](NC(=O)C(=O)C(C)(C)C(F)F)c1ncc(-c2ccc(-c3ccc(-c4cnc([C@@H](NC(=O)C(=O)C(C)(C)C(F)F)C(C)C)[nH]4)cc3)cc2)[nH]1 [Compound P-124] | >100
9 | CC(C)C(NC(=O)C(=O)N(CC(F)(F)F)C(C)C)c1nc(-c2ccc(-c3ccc(-c4c[nH]c(C(NC(=O)C(=O)N(CC(F)(F)F)C(C)C)C(C)C)n4)cc3)cc2)c[nH]1 (stereo not drawn) [Compound W-65] | >100
10 | CC(C)CC(=O)NC1(c2ncc(-c3ccc(-c4ccc(-c5cnc(C6(NC(=O)CC(C)C)CC=CC6)[nH]5)cc4)cc3)[nH]2)CC=CC1.O=C(O)C(F)(F)F.O=C(O)C(F)(F)F [Compound N-16] | <10
11 | CC(C)[C@H](NC(=O)C(C)(C)C)c1nc(-c2ccc(-c3ccc(-c4c[nH]c([C@@H](NC(=O)C(C)(C)C)C(C)C)n4)cn3)cc2)c[nH]1.O=C(O)C(F)(F)F [Compound N-103] | >100
12 | CC(C)(C)[C@H](NC(=O)C1CCCCC1CO)c1nc(-c2ccc(-c3ccc(-c4c[nH]c([C@@H](NC(=O)C5CCCCC5CO)C(C)(C)C)n4)cc3)cc2)c[nH]1 (single isomer, unassigned) [Compound L-141b] | >100
13 | CC(C)[C@H](NC(=O)[C@@H]1Cc2ccccc21)c1ncc(-c2ccc(-c3ccc(-c4cnc([C@@H](NC(=O)[C@@H]5Cc6ccccc65)C(C)C)[nH]4)cc3)cc2)[nH]1 [Compound P-110] | >100
14 | CC(C)(C)[C@H](NC(=O)C(=O)N1CCC(F)CC1)c1nc(-c2ccc(-c3ccc(-c4c[nH]c([C@@H](NC(=O)C(=O)N5CCC(F)CC5)C(C)(C)C)n4)cc3)cc2)c[nH]1 [Compound W-26] | >100
15 | CC(C)[C@H](NC(=O)C1CC1)c1ncc(-c2ccc(-c3ccc(-c4cnc([C@@H](NC(=O)C5CC5)C(C)C)[nH]4)cc3)cc2)[nH]1 [Compound S-20] | >100
16 | C=C1C[C@@H](C(=O)N[C@H](c2nc(-c3ccc(-c4ccc(-c5c[nH]c([C@@H](NC(=O)[C@@H]6CC(=C)CN6C(=O)OC(C)(C)C)C(C)(C)C)n5)cc4)cc3)c[nH]2)C(C)(C)C)N(C(=O)OC(C)(C)C)C1 [Compound W-91] | >100
17 | CC(C)[C@H](NC(=O)c1cc(Cl)ccc1F)c1ncc(-c2ccc3c(c2)Cc2cc(-c4cnc([C@@H](NC(=O)c5cc(Cl)ccc5F)C(C)C)[nH]4)ccc2-3)[nH]1.O=C(O)C(F)(F)F [Compound N-73] | >100
18 | CC(C)[C@H](NC(=O)c1cocn1)c1ncc(-c2ccc(-c3ccc(-c4cnc([C@@H](NC(=O)c5cocn5)C(C)C)[nH]4)cc3)cc2)[nH]1 [Compound P-92] | >10
19 | COC(C)(COCc1ccccc1)C(=O)N[C@H](c1nc(-c2ccc(-c3ccc(-c4c[nH]c([C@@H](NC(=O)C(C)(COCc5ccccc5)OC)C(C)(C)C)n4)cc3)cc2)c[nH]1)C(C)(C)C.O=C(O)C(F)(F)F.O=C(O)C(F)(F)F (single isomer, unassigned) [Compound W-232] | >100
20 | CC(C)(C)C(=O)N[C@H](c1nc2ccc(C#Cc3ccc4nc([C@@H](NC(=O)C(C)(C)C)C(C)(C)C)[nH]c4c3)cc2[nH]1)C(C)(C)C.O=C(O)C(F)(F)F [Compound B39] | >100
21 | CC1([C@H](NC(=O)C2CCC(F)(F)CC2)c2ncc(-c3ccc(-c4ccc(-c5cnc([C@@H](NC(=O)C6CCC(F)(F)CC6)C6(C)CCC6)[nH]5)cc4)cc3)[nH]2)CCC1 [Compound Y-38] | >100
22 | COC(=O)NC1CCCCC1C(=O)NC(c1nc(-c2ccc(-c3ccc(-c4c[nH]c(C(NC(=O)C5CCCCC5NC(=O)OC)C(C)(C)C)n4)cc3)cc2)c[nH]1)C(C)(C)C (mixture of isomers) [Compound S-275] | >100
23 | CC(C)[C@H](NC(=O)C1(C)CC1)c1ncc(-c2ccc(-c3ccc(-c4cnc([C@@H](NC(=O)C5(C)CC5)C(C)C)[nH]4)cc3)cc2)[nH]1 [Compound S-1] | >100
24 | CC(C)CC(=O)N[C@H](c1nc(-c2ccc(-c3ccc(-c4c[nH]c([C@@H](NC(=O)CC(C)C)C(C)(C)C)n4)cc3)cc2)c[nH]1)C(C)(C)C [Compound N-117] | >100
25 | CC(C)(C)[C@H](NC(=O)C1(CO)CCCO1)c1nc(-c2ccc(-c3ccc(-c4c[nH]c([C@@H](NC(=O)C5(CO)CCCO5)C(C)(C)C)n4)cc3)cc2)c[nH]1 (single isomer, unassigned) [Compound Y-110] | >100
26 | COCC(C)(COC)C(=O)NC(c1nc(-c2ccc(-c3ccc(-c4c[nH]c(C(NC(=O)C(C)(COC)COC)C(C)(C)C)n4)cc3)cc2)c[nH]1)C(C)(C)C [Compound L-123] | >100
27 | CC(C)(C)[C@H](NC(=O)C1C2CCOC21)c1nc(-c2ccc(-c3ccc(-c4cnc([C@@H](NC(=O)C5C6CCOC65)C(C)(C)C)[nH]4)cc3)cc2)c[nH]1 (single isomer, unassigned) [Compound B-164] | >100
28 | CC(C)(C)[C@H](NC(=O)C1CCC(F)(F)CC1)c1nc(-c2ccc(-c3ccc(-c4c[nH]c([C@@H](NC(=O)C5CCC(F)(F)CC5)C(C)(C)C)n4)cc3)cc2)c[nH]1 [Compound N-47] | >100
29 | COc1ccc(C(=O)N[C@H](c2ncc(-c3ccc(-c4ccc(-c5cnc([C@@H](NC(=O)c6ccc(OC)c(OC)c6)C(C)C)[nH]5)cc4)cc3)[nH]2)C(C)C)cc1OC [Compound S-78] | >100
30 | C#CCOC(=O)N[C@H](c1ncc(-c2ccc(-c3ccc(-c4cnc([C@@H](NC(=O)OCC#C)C(C)C)[nH]4)cc3)cc2)[nH]1)C(C)C [Compound S-212] | >10
